Columns and labels:
[1] = Stability of M4N formulations at 4° C. and on centrifugation; type: physicochemical
Description: All formulations withstand 4° C. for 24 hr and 5 min. centrifugation at 5000 rpm without forming visible precipitates. The formulation containing 50% PEG 300, 20% HP-β-CD, 12.5 mg/mL M4N stock solution withstands 4° C. for at least 4 months. Dilutions of the same stock made in 1:1 or 1:2 dilutions also withstand 4° C. for at least 4 months.

Beagle dogs = assay: Intravenous infusion toxicity study (maximum tolerable dose, escalating doses) in Beagle dogs; type: in vivo
Description: The purpose of this study was to determine the maximum tolerable dose of tetra-O-methyl NDGA (M4N) when administered by intravenous infusion to male and female Beagle dogs, supplied by Convince Research Products (Cumberland, Va., U.S.A). Two Beagle dogs, one male and one female, about 6 to 9 months old at first dose, were administered the cyclodextrin vehicle containing 20% (w/v) HP-β-CD and 50% PEG 300, on Study Day (“SD”) 1, followed by escalating levels of M4N prepared in the cyclodextrin vehicle (i.e., the test articles). The preformed cyclodextrin vehicle and test articles were stored at room temperature. Sterile water, used as diluent, was obtained from Baxter Health Care Corp. (Deerfield, Mich., U.S.A) or Abbott Laboratories (North Chicago, Ill., U.S.A.) and stored at room temperature.
The test article, cyclodextrin vehicle and diluent were considered 100% pure for formulation purposes. Dose formulations were prepared on each day of dosing by adding the appropriate amount of test article or cyclodextrin vehicle into a glass container using a sterile syringe. For each dose, an equal amount of sterile water was added to the M4N formulation or cyclodextrin vehicle to form a 50:50 (v/v) dilution. No dilution was required for the 200 mg/kg dose. All formulations were mixed by gentle inversion to ensure that a proper solution was formed. Formulations were loaded into medication cassettes and stored at room temperature until needed.
M4N was administered at 25 mg/kg on SD 3, 50 mg/kg on SD 5, and 100 mg/kg on SD 8. Only the female received the full 100 mg/kg dose; due to mechanical malfunctions caused by precipitation in the infusion line, the male dog received approximately 72 mg/kg (i.e., 72%) of the intended dose. Two additional Beagle dogs were administered a 200 mg/kg dose; however, mechanical difficulties ensued and the male dog received approximately 180 mg/kg (90%) of the intended dose, whereas the amount the female received could not be determined.
Using aseptic surgical techniques, the animals were catheterized with an in-dwelling catheter inserted into the jugular vein, and were treated prophylactically with an analgesic and antibiotic on the day of surgery and with antibiotics and/or analgesics for 8 days following surgery.
Following completion of each intravenous infusion, 1 mL of sterile saline was administered as a slow bolus injection to flush the test material from the infusion line into the animal, followed by an injection of heparin-saline solution to fill the infusion line to maintain patency. The animals were observed. Cageside observation included observation for mortality, morbundity, general health, and signs of toxicity. […]

[2] = 7-Day intravenous infusion study in Beagle dogs: toxicokinetic serum analysis; type: in vivo
Description: This study was conducted to evaluate the toxicokinetic profile of M4N formulated in 30% HP-β-CD and 25% PEG 300 when administered as a single intravenous infusion dose for seven consecutive days in beagle dogs. This study constitutes the first study of this particular formulation of M4N in dogs and was executed to evaluate the toxicity and compare tolerability of a diluted formulation (10 mg/mL versus 5 mg/mL).
A total of twelve beagle dogs (8 male/4 female) were dosed with M4N via a 54-minute (Group 2) or 108-minute (Groups 1, 3 and 4) intravenous infusion. All animals received seven doses, one per day over seven consecutive days.
The following parameters were evaluated: clinical observations and body weights. Test article analysis was performed on Study Days 1 and 7, blood samples (targeting a volume of 2.0 mL) were collected from each animal from an appropriate vessel at the following time points: […]

[3] = Compatibility of IV tubing for delivery of M4N (visual inspection and HPLC); settings: PTFE and fluorelastomer, polypropylene, FEP, polyethylene, platinum cured silicone (small size)
Description: In this experiment, various types of tubing were tested for compatibility and for optimizing intravenous delivery of M4N. The tests on compatibility were based on visual inspection and HPLC (high pressure liquid chromatography) analysis.
The visual inspection was conducted as follows: About 5 mL of a formulation to be tested (“formulated material”) were passed through a tubing of about 20 cm in length. The formulated material was kept inside the tube for about 24 hr at room temperature (25° C.). The formulated material was then circulated several times (about 5 times, for example) through the tubing and was collected in a beaker or a collection tube. The formulated material was carefully inspected for precipitates or particulates present, including by holding the beaker or collection tube against a white background followed by a dark background.
The compatibility test using HPLC analysis varied in the methodology depending on the tubing being tested, the length of time and the purpose of the tubing. This test measured the amount of M4N in solution before and after circulation through different tubing.

## COc1ccc(C[C@@H](C)[C@@H](C)Cc2ccc(OC)c(OC)c2)cc1OC [Formulation M4N, meso-1,4-bis(3,4-dimethoxyphenyl)-2,3-dimethylbutane]
[1]; 1:1 or 1:2 dilutions of the 50% PEG 300, 20% HP-β-CD, 12.5 mg/mL M4N stock
  withstand 4° C.: at least 4 months
[1]; 50% PEG 300, 20% HP-β-CD, 12.5 mg/mL M4N stock solution
  withstands 4° C.: at least 4 months
Beagle dogs; Male dog 10567, SD13
  Individual Body Weights: 10.2 kg
Beagle dogs; dog, in vivo
  gross pathology and microscopic changes: no test-article related gross pathology findings or microscopic changes
Beagle dogs; dog, in vivo, iv
  doses at which no treatment-related adverse effects were observed: up to 200 mg/kg
Beagle dogs; escalating IV infusion doses 25 to 200 mg/kg in 20% HP-β-CD/50% PEG 300 vehicle
  mortality: no effect
[2]; Group 2, 45 mg/kg (10 mg/mL), 54-minute IV infusion
  peak test article concentration in serum: 33420 ng/mL
[2]; Group 2, end of infusion
  time of maximum concentration: 0.9 h
[2]; Group 3, 90 mg/kg (10 mg/mL), 108-minute IV infusion
  peak test article concentration in serum: 46704 ng/mL
[2]; Group 4, 45 mg/kg (5 mg/mL), 108-minute IV infusion
  peak test article concentration in serum: 18759 ng/mL
[2]; Groups 3 and 4, end of infusion
  time of maximum concentration: 1.8 h
[3]
  compatibility of tubing for delivery of M4N (threshold about 90% of M4N remaining in solution): compatible

From US20080096967A1, “Formulations for Injection of Catecholic Butanes, Including Ndga Compounds, Into Animals” (priority 2005, published 2008)
